From patent publication US8808692B2, “Compositions comprising immunoreactive reagents and saponins, and methods of use thereof” (CSL Limited, priority 2001, dated 2014)

What was measured:
[1] = cited from earlier work; for level of antibody response induced: mice, antigens bovine serum albumin and cytochrome b5; for IgG2a response to cytochrome b5: saponin doses of 20 μg
[2] = mouse, in vivo; cited from earlier work
[3] = tested on: target cells (E.G7-OVA or MO4); test: Enhancement of antibody mediated lysis in vitro (51Cr-labeled target cells); format: cell-based, mice; details: splenocytes incubated with 1 to 10 ug/ml QS-21 for 24 to 72 hours; monoclonal antibody to SIINFEKL/Class I MHC 1 to 10 ug/ml
Protocol: Murine splenocytes (effector cells) are generated from the spleens of naive 6-8week old mice. These effector cells are incubated with 1 to 10 ug/ml of QS-21 or appropriate amount of another immunomodulatory saponin for 24 to 72 hours. At the end of the incubation period, target cells (E.G7-OVA or MO4) are loaded with 51 Cr. Effector cells and labeled target cells are incubated at defined effector:target ratios in the presence and absence of monoclonal antibody to SIINFEKL (SEQ ID NO: 1)/Class I MHC (1 to 10 ug/ml) at […] for 30 to 60minutes. The lysis in the presence of QS-21 and monoclonal is compared to controls without QS-21, without monoclonal, or both.

[4] = melanoma patients; cited from earlier work
[5] = tested on: bone marrow derived dendritic cells; test: Cytokine production in bone marrow derived dendritic cells; format: cell-based
[6] = tested on: Fc α R, Fc gamma R1, Fc gamma RII or Fc gamma RIII; test: Upregulation of Fc receptors (FACScan); format: cell-based; details: QS-21 for example 1-10 ug/ml
Protocol: Monocytes, natural killer cells, or polymorphonuclear cells are incubated in the presence or absence of QS-21 (for example 1-10 ug/ml). The trypsinized cells are incubated at 4° C. for 60 min with monoclonal antibodies specific to Fc α R, Fc gamma R1, Fc gamma RII or Fc gamma RIII. The cells are then incubated with an anti-mouse IgG FITC probe, washed, fixed in paraformaldehyde, and analyzed by FACScan.

[7] = tested on: MO4 tumor or EG7-OVA tumor; test: Tumor challenge model; format: in vivo, C57B1/6 mice; details: QS-21 (10-20 ug) with monoclonal antibody vs monoclonal antibody alone; 30 to 60 day period
Protocol: C57B1/6 mice are inoculated by s.c. route in the flank with MO4 tumor (1 ×10^5) or EG7-OVA tumor. At 24 to 48 hours after inoculation, mice are injected by IP route with a monoclonal antibody to SIINFEKL (SEQ ID NO: 1)/Class I MHC , or by local SC route in the presence or absence of QS-21 (10 -20 ug). The antitumor effect of the QS-21/monoclonal antibody treatment is compared to that of monoclonal antibody treatment by monitoring the growth of the tumors over a 30 to 60 day period (measurement with calipers). Survival was determined, and significance with respect to time to death was assessed using Cox regression analysis. Mice were also observed daily for signs of toxicity including level of activity, ruffled fur, diarrhea, and general appearance. […] Models and methods for evaluation of the effects of saponins and antibodies, or other immunoreactive reagents are known in the art. (Wooldridge et al., Blood, 1997, 89 (8): 2994-2998, incorporated by reference herein in its entirety).

macrophage cells = test: Cytokine production in macrophage cells; format: cell-based
[8] = tested on: S. pneumonia or S. aureus; test: Opsonophagocytosis assay with HL-60 effector cells; format: cell-based; details: HL-60 effector cells incubated with QS-21, at a given antibody titer

Substance | level of antibody response induced [1] | IgG2a response to cytochrome b5 [1] | toxicity in mice [2] | lysis due to QS-21/monoclonal over monoclonal alone [3] | serological response to MELIMMUNE-1 [4] | production of II-12 [5] | production of IL-1 [5] | production of MIP-1-alpha [5] | production of MIP-1-beta [5] | Fc receptors on monocytes, natural killer cells, or polymorphonuclear cells [6] | tumor progression [7] | IL-6 (macrophage cells) | MIP-1-alpha (macrophage cells) | TNF-alpha (macrophage cells) | opsonization of bacteria [8]
QS-17 | comparable to other commonly used adjuvants | stimulate IgG2a response | – | – | – | – | – | – | – | – | – | – | – | – | –
QS-18 | comparable to other commonly used adjuvants | stimulate IgG2a response | – | – | – | – | – | – | – | – | – | – | – | – | –
QS-21 | comparable to other commonly used adjuvants | stimulate IgG2a response | least toxic | enhanced lysis | significantly increased | decrease the production | increase production | increase production | decrease the production | Upregulation | delay in tumor progression | upregulation | upregulation | upregulation | Improved opsonization
